Measured values as given in PubChem BioAssay (NCI).
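Cultured in 96-well plates, cells were exposed to test compound for 48 hours across five concentrations. GI50 is the concentration that inhibits growth by half. TGI denotes the concentration required for complete inhibition of growth.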

How the values were obtained:
Assay in all cases: NCI-60 cell line screen, 48 h
[1] = test system: 786-0 renal
[2] = test system: A498 renal
[3] = test system: A549 NSCLC
[4] = test system: ACHN renal
[5] = test system: BT-549 breast
[6] = test system: CAKI-1 renal
[7] = test system: CCRF-CEM leukemia
[8] = test system: COLO 205 colon
[9] = test system: DU-145 prostate
[10] = test system: HCC-2998 colon
[11] = test system: HCT-116 colon
[12] = test system: HCT-15 colon
[13] = test system: HL-60(TB) leukemia
[14] = test system: HOP-62 NSCLC
[15] = test system: HOP-92 NSCLC
[16] = test system: HS 578T breast
[17] = test system: HT29 colon
[18] = test system: IGROV1 ovarian
[19] = test system: K-562 leukemia
[20] = test system: KM12 colon
[21] = test system: LOX IMVI melanoma
[22] = test system: M14 melanoma
[23] = test system: MALME-3M melanoma
[24] = test system: MCF7 breast
[25] = test system: MDA-MB-231 breast
[26] = test system: MDA-MB-435
[27] = test system: MOLT-4 leukemia
[28] = test system: NCI-H226 lung

CCOC(=O)N1C/C(=C/c2ccc(F)cc2)C(=O)/C(=C/c2ccc(F)cc2)C1 gave a GI50 [1] of 1690 nM, a TGI [1] of 3620 nM and a GI50 [2] of 2160 nM. It also gave a TGI [2] of 5120 nM, a GI50 [3] of 2640 nM and a TGI [3] of 8650 nM. The GI50 [4] was 1860 nM, the TGI [4] was 3420 nM and the GI50 [5] was 1650 nM. For the same molecule, the TGI [5] was 3090 nM, the GI50 [6] was 3010 nM and the TGI [6] was 12100 nM. For the same molecule, the GI50 [7] was 758 nM, the TGI [7] was 5640 nM and the GI50 [8] was 1920 nM. The TGI [8] was 3540 nM, the GI50 [9] was 3480 nM and the TGI [9] was 10900 nM. For the same molecule, the GI50 [10] was 1840 nM, the TGI [10] was 3290 nM and the GI50 [11] was 205 nM. It also gave a TGI [11] of 397 nM, a GI50 [12] of 1160 nM and a TGI [12] of 3020 nM. The GI50 [13] was 3180 nM, the TGI [13] was 10600 nM and the GI50 [14] was 2100 nM. For the same molecule, the TGI [14] was 4240 nM, the GI50 [15] was 1650 nM and the TGI [15] was 4640 nM. It also gave a GI50 [16] of 3130 nM, a TGI [16] of 29000 nM and a GI50 [17] of 363 nM. The TGI [17] was 1370 nM, the GI50 [18] was 2390 nM and the TGI [18] was 6120 nM. It also gave a GI50 [19] of 754 nM, a TGI [19] of over 100000 nM and a GI50 [20] of 641 nM. For the same molecule, the TGI [20] was 2040 nM, the GI50 [21] was 327 nM and the TGI [21] was 1100 nM. For the same molecule, the GI50 [22] was 2070 nM, the TGI [22] was 4670 nM and the GI50 [23] was 2340 nM. For the same molecule, the TGI [23] was 5580 nM, the GI50 [24] was 327 nM and the TGI [24] was 1390 nM. The GI50 [25] was 1810 nM, the TGI [25] was 4180 nM and the GI50 [26] was 1220 nM. The TGI [26] was 3730 nM, the GI50 [27] was 2600 nM and the TGI [27] was 7840 nM. For the same molecule, the GI50 [28] was 3520 nM and the TGI [28] was 19800 nM.
